Assay results reported in patent publication US11491155B2, “Salt of a pyrimido[6,1-A]isoquinolin-4-one compound” (VERONA PHARMA PLC, priority 2015, dated 2022).
Structures can show the parent of a compound that is named as a salt.

Key:
[1] = Physico-chemical characteristics of salt candidates: solubility in water, pH of aqueous suspension/solution, form post water maturation
Procedure: The physico-chemical characteristics of the salt candidates were determined.

[2] = Primary particle size analysis by laser light diffraction (Mastersizer 2000); format: physicochemical; details: micronised, mean n=3
Procedure: A Mastersizer 2000 fitted with a Scirocco 2000 dry powder dispersion unit (Malvern Instruments Ltd, UK) was used to analyse the primary particle size of the micronised RPL554 and salt variants. The salts (50 mg) were automatically sampled via a vibrating feed control at a feeder rate of 60% and dispersed in compressed air at a pressure of 3 bar.

[3] = RPL554 content and content uniformity of 1% w/w lactose powder blends; format: physicochemical; details: for Measured Blend Content (% Theoretical): 1% w/w RPL554 variant: lactose powder blend, expressed as RPL554 base; for **Adjusted RPL554 Content per capsule: per 20 mg capsule of 1% w/w lactose blend, adjusted for measured blend content (% theoretical), as RPL554 base
Procedure: Batches (approximately 5 g) of 1% w/w RPL554 free base or salt variants: lactose blends were prepared. In brief, the RPL554 free base or salt plus a small quantity of lactose was passed through a 38 μm sieve. The sieved material plus the remaining lactose was mixed in a glass mortar prior to transfer to a stainless steel screw cap jar and further mixing (10 minutes at 46 rpm) conducted using a Turbula blender. The composition of the dry powder blend was 0.05 g API and 4.95 g lactose.
In order to determine the content uniformity of the blends, aliquots (approx. 20 mg) of powder were sampled from each blend, accurately weighed, and diluted to volume in 10 mL volumetric flasks with diluent. The flasks were sonicated for 3 minutes before samples were transferred to HPLC vials for analysis.

[4] = Solubility of RPL554 and salts in pMDI propellant systems; format: physicochemical; details: for Estimated RPL554 solubilised (%) / Estimated Solubilised RPL554 μg per 50 μL actuation / Solubility RPL554: in HFA 134 with Ethanol/Tween
Procedure: Quantitative assessment of the solubility of RPL554 and salt variants in the propellant systems of selected pMDI formulations (three replicates of each formulation) was performed. pMDIs were directly coupled to an adaptor fitted with a 0.20 μm filter unit connected, in series to a 21 G needle, which was inserted via a rubber septum, into a cooled multi-dose glass vial. A 19 G filter needle was inserted through the septum to aid evaporation of propellant from the vial. Prior to the filtration process the vial was cooled in a mixture of dry ice and acetone to ensure that the pressure within the vial was reduced in order to facilitate collection of the output from the pMDI. Ten consecutive actuations of the pMDI were fired through the filter and collected in the vial. Between actuations the canister was shaken for approximately 10 seconds. The pMDI unit was weighed before and after the filtering procedure. The filtrate was stored at room temperature and allowed to evaporate to dryness.
Samples were recovered by carefully rinsing the inside of the vials with 1 mL of recovery solution before transfer to HPLC vials for analysis. The estimated % of RPL554 solubilised within the canister was calculated from the starting mass of RPL554 within the canisters, which in turn was calculated using the theoretical molecular weight values of the RPL554 free base and salt variants shown in Table 13. The theoretical molecular weight estimates of the salts were provided by Verona.

[5] = Solubility of RPL554 salts in saline solutions, water and aqueous buffer solutions at 25° C. (HPLC); format: physicochemical; details: 24 hours; for Solubility as RPL554 (mg/ml) in Water: deionised water
Procedure: The behaviour of salts of RPL554 were examined under the following conditions: • Phosphate buffered to pH 3.5 in saline, 0.9% w/w at 25° C. • Acetate buffered to pH 4.5 in saline, 0.9% w/w at 25° C. • Citro-Phosphate buffered to pH 4.5 in saline, 0.9% w/w at 25° C. • Phosphate buffered to pH 6.5 in saline, 0.9% w/w at 25° C. • Saline, 0.7, 0.9 and 1.1% w/w at 25° C. • Deionised water at 25° C.
RPL554 salts and RPL554, ca 50 mg, were suspended in the various aqueous media, 1 ml, with agitation at the specified temperatures for 24 hours. The solids were isolated and dried in vacuo at 45° C. The retained filtrates were examined by HPLC.
Additional RPL554 methane sulfonate salt, ca 50 mg, was charged to the water mixtures at 25° C. and 37.5° C. in order to afford a suspension. In all other cases, suspensions were obtained.
The solubility of the RPL554 was determined by HPLC using a single point calibration and is expressed as RPL554 and not as the salt and are detailed in Table 6 and Table 7 for the various conditions utilised.

[6] = Intrinsic dissolution of compressed tablet, pH 7.0, 37° C. (Sirius inForm); format: physicochemical; details: for Mass of salt (μg) dissolved after 2 hours, Average / Mass of salt (μg) dissolved after 2 hours, Test 1 / Mass of salt (μg) dissolved after 2 hours, Test 2: pH 7.0, 0.15 M NaCl, 37° C.; for mass dissolved: before precipitation
Procedure: The dissolution assay (pH-dependent sample dissolution) was investigated using the Sirius inForm.
Dissolution of a compressed tablet of the compound was monitored in a pH 7.0 aqueous dissolution experiment (0.15 M NaCl) at 37° C. using UV-absorption spectroscopy in 2 hour experiments. A tablet with a diameter of 3 mm, requiring approximate weights of 10 mg was compressed under a weight of 100 kg load force. Only one face of the tablet was exposed to the dissolution medium, which contained a 0.01 M acetate/phosphate buffer system to minimise perturbation of the experimental pH from dissolution of the drug.
Stirring of the solution was continuous and at a constant rate of 100 rpm. The absorption data was converted to absolute sample weights using previously determined, pH-dependent, molar extinction coefficients. An appropriate wavelength range was chosen to ensure that spectroscopic data with an absorption value of <1.3 was analysed, avoiding erroneous dissolution results due to saturation of the UV light source.

[7] = Aerosol performance of DPI formulations (Cyclohaler, NGI); format: physicochemical; details: for †Measured Mass of 1% w/w Blend Delivered per capsule / ††RPL554 Emitted (μg) per capsule (B): Cyclohaler; for †Measured Mass of 1% w/w Blend Delivered per capsule: 5 capsules containing 20 mg powder blend, mass from weight change of capsule-loaded device; for ††RPL554 Emitted (μg) per capsule (B): NGI, mass determined from HPLC analysis of recovered samples; for ††RPL554 Emitted (μg) per capsule (B) / Calculated RPL554 Content (μg) per capsule (A): as RPL554 base; for Calculated RPL554 Content (μg) per capsule (A): calculated from delivered blend mass and measured blend content
Procedure: Capsules were hand filled with 20 mg of the 1% w/w RPL554 free base or salt variants: lactose blends, i.e. 200 μg salt per capsule, the fill weight of each capsule was recorded. Due to differences in the molecular weights of the RPL554 salt forms, the amount of RPL554 emitted per actuation varied as a function of molecular weight. The formulations were prepared with no adjustment for differences in molecular weight of the salts.
The powders were delivered via the Cyclohaler® DPI (PCH Pharmachemie, BV, The Netherlands). The Cyclohaler® DPI is a low resistance device and was operated at a flow rate of 90 L/min for 2.7 seconds. The cut off diameters for the NGI collection stages were calculated for the 90 L/min flow rate using the NGI User Guide (MSP Corporation, 2008).
The ED, FPD and FPF were determined from inertial impaction tests performed following the deposition of 5 capsules of each formulation into the NGI. For each capsule tested the combined weight of the Cyclohaler® and capsule was determined before and after operation to check that the dose had been delivered. The NGI was fitted with a pre-separator for these determinations. The central cup of the pre-separator was filled with 15 mL of diluent. Following deposition, the solution was recovered in a 20 mL volumetric flask and made up to volume with diluent. RPL554 was quantitatively recovered from the device, induction port and each of the NGI collection stages with 10 mL of diluent.
The volume of diluent used for each sample was selected to ensure RPL554 concentrations were above the limit of quantitation.

[8] = listed as hydrobromide salt, hydrobromide
[9] = listed as methanesulfonate salt

SMILES: COc1cc2c(cc1OC)-c1c/c(=N\c3c(C)cc(C)cc3C)n(CCNC(N)=O)c(=O)n1CC2 [Hydrobromide, RPL554 hydrobromide]
- pH of aqueous suspension/solution ([1]; listed as HBr, hydrobromide): 3.20
- D (0.1) (μm) ([2]; hydrobromide): 0.64 μm
- D (0.5) (μm) ([2]; hydrobromide): 1.52 μm
- D (0.9) (μm) ([2]; hydrobromide): 3.23 μm
- Measured Blend Content (% Theoretical) ([3]; hydrobromide): 83.37 % Theoretical
- **Adjusted RPL554 Content per capsule ([3]; hydrobromide): 142.58 µg
- Solubility RPL554 (μg/g) ([4]; in HFA 134, BLQ = below limit of quantitation (0.06 μg/mL), hydrobromide): BLQ
- Calculated RPL554 solubilised (%) ([4]; in HFA 134, hydrobromide): BLQ
- Calculated Solubilised RPL554 μg per 50 μL actuation ([4]; in HFA 134, hydrobromide): BLQ
- Estimated RPL554 solubilised (%) ([4]; hydrobromide): 3.74%
- Estimated Solubilised RPL554 μg per 50 μL actuation ([4]; hydrobromide): 6.40 µg
- Solubility RPL554 ([4]; hydrobromide): 96.27 µg/g
- Solubility as RPL554 (mg/ml) in 0.7 w/w % Saline ([5]; hydrobromide): 0.95 mg/mL
- Solubility as RPL554 (mg/ml) in 0.9 w/w % Saline ([5]; hydrobromide): 0.82 mg/mL
- Solubility as RPL554 (mg/ml) in 1.1 w/w % Saline ([5]; hydrobromide): 0.66 mg/mL
- Solubility as RPL554 (mg/ml) in Water ([5]; hydrobromide): 3.43 mg/mL
- Mass of salt (μg) dissolved after 2 hours, Average [6, 8]: 35.3 µg
- Mass of salt (μg) dissolved after 2 hours, Test 1 [6, 8]: 30.4 µg
- Mass of salt (μg) dissolved after 2 hours, Test 2 [6, 8]: 40.1 µg
- †Measured Mass of 1% w/w Blend Delivered per capsule ([7]; hydrobromide): 19.96 mg
- ††RPL554 Emitted (μg) per capsule (B) ([7]; hydrobromide): 104.28 µg
- Calculated RPL554 Content (μg) per capsule (A) ([7]; hydrobromide): 142.29 µg

SMILES: COc1cc2c(cc1OC)-c1c/c(=N\c3c(C)cc(C)cc3C)n(CCNC(N)=O)c(=O)n1CC2 [Methanesulfonate, RPL554 methanesulfonate]
- pH of aqueous suspension/solution ([1]; listed as Methane sulfonic): 2.69
- D (0.1) (μm) [2]: 0.45 μm
- D (0.5) (μm) [2]: 1.20 μm
- D (0.9) (μm) [2]: 3.46 μm
- Measured Blend Content (% Theoretical) [3]: 99.13 % Theoretical
- **Adjusted RPL554 Content per capsule [3]: 165.05 µg
- Calculated RPL554 solubilised (%) ([4]; in HFA 134): BLQ
- Calculated Solubilised RPL554 μg per 50 μL actuation ([4]; in HFA 134): BLQ
- Solubility RPL554 (μg/g) ([4]; in HFA 134, BLQ = below limit of quantitation (0.06 μg/mL)): BLQ
- Estimated RPL554 solubilised (%) [4]: 11.64%
- Estimated Solubilised RPL554 μg per 50 μL actuation [4]: 19.38 µg
- Solubility RPL554 [4]: 298.07 µg/g
- Solubility RPL554 ([4]; listed as methanesulfonate): 298 µg/g
- Calculated RPL554 solubilised (%) ([4]; in HFA 227): BLQ
- Calculated Solubilised RPL554 μg per 50 μL actuation ([4]; in HFA 227): BLQ
- Solubility RPL554 (μg/g) ([4]; in HFA 227): BLQ
- Solubility as RPL554 (mg/ml) in 0.7 w/w % Saline [5]: 5.01 mg/mL
- Solubility as RPL554 (mg/ml) in 0.9 w/w % Saline [5]: 3.73 mg/mL
- Solubility as RPL554 (mg/ml) in 1.1 w/w % Saline [5]: 2.52 mg/mL
- Solubility as RPL554 (mg/ml) in Water [5]: 44.52 mg/mL
- dissolution compared with free base / other salts ([6]; 2 hour experiments): higher dissolution than the rest of the salts
- mass dissolved ([6]; at 8.5 min): 3960 µg
- mass dissolved ([6]; at 11 min): 5200 µg
- maximum pH change (decrease) during dissolution ([6]; nominal start pH 7): about 0.1 pH units
- Mass of salt (μg) dissolved after 2 hours, Average [6, 9]: 225 µg
- Mass of salt (μg) dissolved after 2 hours, Test 1 [6, 9]: 160 µg
- Mass of salt (μg) dissolved after 2 hours, Test 2 [6, 9]: 290 µg
- †Measured Mass of 1% w/w Blend Delivered per capsule [7]: 19.96 mg
- ††RPL554 Emitted (μg) per capsule (B) [7]: 118.69 µg
- Calculated RPL554 Content (μg) per capsule (A) [7]: 164.72 µg
